Measurements reported in patent US9684253B2, “Triphenylamine derivative, electrophotographic photosensitive member, and image forming apparatus” (KYOCERA Document Solutions Inc., priority 2014, dated 2017).

Assay: Evaluation of triphenylamine derivative solubility in tetrahydrofuran
Assay type: physicochemical
Conditions: for Solubility: tetrahydrofuran, 25° C., {100/(100+W)}×100; for solubility in a solvent used for photosensitive layer formation (in words): as shown by Table 1
Description: Solubility of each of the triphenylamine derivatives (HT-1) to (HT-8), (HT-A), and (HT-B) was evaluated. More specifically, solubility of the obtained triphenylamine derivative was evaluated by calculating percentage solubility according to the following method. In the method, a small amount of tetrahydrofuran was added to 100 mg of the triphenylamine derivative at 25° C. Next, the mixture was shaken and left to stand, and the above steps were repeated in order to find an additive amount W (mg) of tetrahydrofuran for which solubility of the triphenylamine derivative was saturated. The additive amount W was used to calculate the percentage solubility according to equation (1) shown below. […] Solubility (%)={100/(100+W)}×100 Equation (1): […]

SMILES	Solubility	solubility in a solvent used for photosensitive layer formation (in words)
CCc1cccc(C)c1N(c1ccc(/C=C/C=C/c2ccccc2)cc1)c1ccc(-c2ccc(N(c3ccc(/C=C/C=C/c4ccccc4)cc3)c3c(C)cccc3CC)cc2)cc1 [HT-1]	12%	
CCc1cccc(C)c1N(c1ccc(/C=C/C=C/c2ccc(C)cc2)cc1)c1ccc(-c2ccc(N(c3ccc(/C=C/C=C/c4ccc(C)cc4)cc3)c3c(C)cccc3CC)cc2)cc1 [HT-2]	12%	
Cc1ccccc1N(c1ccc(/C=C/C=C/c2ccccc2)cc1)c1ccc(-c2ccc(N(c3ccc(/C=C/C=C/c4ccccc4)cc3)c3ccccc3C)cc2)cc1 [HT-3]	14%	
CCc1cccc(OC)c1N(c1ccc(/C=C/C=C/c2ccc(C)cc2)cc1)c1ccc(-c2ccc(N(c3ccc(/C=C/C=C/c4ccc(C)cc4)cc3)c3c(CC)cccc3OC)cc2)cc1 [HT-4]	20%	
CCc1cccc(C)c1N(c1ccc(/C=C/C=C/c2cccc(OC)c2)cc1)c1ccc(-c2ccc(N(c3ccc(/C=C/C=C/c4cccc(OC)c4)cc3)c3c(CC)cccc3OC)cc2)cc1 [HT-5]	18%	
Cc1ccc(N(c2ccc(/C=C/C=C/c3ccccc3)cc2)c2ccc(-c3ccc(N(c4ccc(/C=C/C=C/c5ccccc5)cc4)c4ccc(C)cc4C)cc3)cc2)c(C)c1 [HT-7]	14%	

Now from value to compound:

Solubility	solubility in a solvent used for photosensitive layer formation (in words)	SMILES
12%		C(/C=C/c1ccc(N(c2ccc(-c3ccc(N(c4ccc(/C=C/C=C/c5ccccc5)cc4)c4ccccc4-c4ccccc4)cc3)cc2)c2ccccc2-c2ccccc2)cc1)=C\c1ccccc1 [HT-8]
≦1%	poor solubility	C(/C=C/c1ccc(N(c2ccccc2)c2ccc(-c3ccc(N(c4ccccc4)c4ccc(/C=C/C=C/c5ccccc5)cc4)cc3)cc2)cc1)=C\c1ccccc1 [HT-A, reference compound]
7%	poor solubility	Cc1cccc(N(c2ccc(/C=C/C=C/c3ccccc3)cc2)c2ccc(-c3ccc(N(c4ccc(/C=C/C=C/c5ccccc5)cc4)c4cccc(C)c4)cc3)cc2)c1 [HT-B, reference compound]
